# Assay results as given in PubChem BioAssay AID1963449 (Molecular Pharmacology Branch, DTP, NCI, 2024).
# pIC50: −log10 of the molar value. “And” between values parts separate entries of the source, which are not always exact repeats. Equal values may be shown once.
# Tested on: 596521-263-R-J1-PDC complex spheroid growth
# Test: Anticancer human tumor 596521-263-R-J1-PDC patient-derived soft tissue sarcoma cell line growth inhibition [Asc]
# Conditions: for viability, T/C: stronger effect = lower value
# Outline: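 Tumor cells were grown as complex spheroids with human endothelial cells (HUVEC) and human mesenchymal stem cells as stroma. Agents were tested alone and in combination, in half-log steps down from the clinical Cmax, or from 10 microM where Cmax was unknown.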
# [1] = curve of first compound, second compound 0.00949 µM
# [2] = curve of first compound, second compound 0.03 µM
# [3] = curve of first compound, second compound 0.0949 µM
# [4] = curve of first compound, second compound 0.3 µM
# [5] = curve of first compound, second compound 0.949 µM
# [6] = curve of first compound, second compound 3 µM
# [7] = second compound 0.00949 µM, first compound 0.0316 µM
# [8] = second compound 0.00949 µM, first compound 0.1 µM
# [9] = second compound 0.00949 µM, first compound 0.316 µM
# [10] = second compound 0.00949 µM, first compound 1 µM
# [11] = second compound 0.03 µM, first compound 0.0316 µM
# [12] = second compound 0.03 µM, first compound 0.1 µM
# [13] = second compound 0.03 µM, first compound 0.316 µM
# [14] = second compound 0.03 µM, first compound 1 µM
# [15] = second compound 0.0949 µM, first compound 0.0316 µM
# [16] = second compound 0.0949 µM, first compound 0.1 µM
# [17] = second compound 0.0949 µM, first compound 0.316 µM
# [18] = second compound 0.0949 µM, first compound 1 µM
# [19] = second compound 0.3 µM, first compound 0.0316 µM
# [20] = second compound 0.3 µM, first compound 0.1 µM
# [21] = second compound 0.3 µM, first compound 0.316 µM
# [22] = second compound 0.3 µM, first compound 1 µM
# [23] = second compound 0.949 µM, first compound 0.0316 µM
# [24] = second compound 0.949 µM, first compound 0.1 µM
# [25] = second compound 0.949 µM, first compound 0.316 µM
# [26] = second compound 0.949 µM, first compound 1 µM
# [27] = second compound 3 µM, first compound 0.0316 µM
# [28] = second compound 3 µM, first compound 0.1 µM
# [29] = second compound 3 µM, first compound 0.316 µM
# [30] = second compound 3 µM, first compound 1 µM
# 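Note: spheroids exposed to compounds for 7 days.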
compound,measurement,setting,value
CNC(C)C(=O)NC1CN(S(=O)(=O)c2cccc(S(=O)(=O)N3CCC4CCC(C(=O)NC(c5ccccc5)c5ccccc5)N4C(=O)C(NC(=O)C(C)NC)C3)c2)CCC2CCC(C(=O)NC(c3ccccc3)c3ccccc3)N2C1=O (stereo not given) + CCN1C(C(=O)NC23CCC(C(=O)O)(CC2)CC3)C(c2cccc(Cl)c2F)C2(C(=O)Nc3cc(Cl)ccc32)C12CCCCC2,pIC50,[1],< 6.00
same,pIC50,[2],< 6.00
same,pIC50,[3],< 6.00
same,pIC50,[4],< 6.00
same,pIC50,[5],< 6.00
same,pIC50,[6],< 6.00
same,"viability, T/C","second compound 0.00949 µM, first compound 0.00316 µM",92.4%
same,"viability, T/C","second compound 0.00949 µM, first compound 0.01 µM",87.3%
same,"viability, T/C",[7],111%
same,"viability, T/C",[8],96%
same,"viability, T/C",[9],87%
same,"viability, T/C",[10],86.3%
same,"viability, T/C","second compound 0.03 µM, first compound 0.00316 µM",96.4%
same,"viability, T/C","second compound 0.03 µM, first compound 0.01 µM",86.5%
same,"viability, T/C",[11],88.5%
same,"viability, T/C",[12],87.7%
same,"viability, T/C",[13],87.5%
same,"viability, T/C",[14],73.1%
same,"viability, T/C","second compound 0.0949 µM, first compound 0.00316 µM",102%
same,"viability, T/C","second compound 0.0949 µM, first compound 0.01 µM",105%
same,"viability, T/C",[15],85.2%
same,"viability, T/C",[16],94.7%
same,"viability, T/C",[17],91.4%
same,"viability, T/C",[18],89.8%
same,"viability, T/C","second compound 0.3 µM, first compound 0.00316 µM",104%
same,"viability, T/C","second compound 0.3 µM, first compound 0.01 µM",104%
same,"viability, T/C",[19],98.4%
same,"viability, T/C",[20],91.5%
same,"viability, T/C",[21],94.2%
same,"viability, T/C",[22],70.3%
same,"viability, T/C","second compound 0.949 µM, first compound 0.00316 µM",99%
same,"viability, T/C","second compound 0.949 µM, first compound 0.01 µM",90.2%
same,"viability, T/C",[23],98.8%
same,"viability, T/C",[24],80.3%
same,"viability, T/C",[25],78.8%
same,"viability, T/C",[26],84.4%
same,"viability, T/C","second compound 3 µM, first compound 0.00316 µM",78.2%
same,"viability, T/C","second compound 3 µM, first compound 0.01 µM",87.8%
same,"viability, T/C",[27],82.8%
same,"viability, T/C",[28],73.5%
same,"viability, T/C",[29],69.3%
same,"viability, T/C",[30],65.4%
C=CC(=O)N1CCN(c2nc(=O)n(-c3c(C)ccnc3C(C)C)c3nc(-c4c(O)cccc4F)c(F)cc23)C(C)C1 (stereo not given) + CCN1C(C(=O)NC23CCC(C(=O)O)(CC2)CC3)C(c2cccc(Cl)c2F)C2(C(=O)Nc3cc(Cl)ccc32)C12CCCCC2,pIC50,[1],< 5.00
same,pIC50,[2],< 5.00
same,pIC50,[3],< 5.00
same,pIC50,[4],< 5.00
same,pIC50,[5],< 5.00
same,pIC50,[6],< 5.00
same,"viability, T/C",[7],102%
same,"viability, T/C",[8],101%
same,"viability, T/C",[9],123%
same,"viability, T/C",[10],114%
same,"viability, T/C","second compound 0.00949 µM, first compound 3.16 µM",113%
same,"viability, T/C","second compound 0.00949 µM, first compound 10 µM",70.7%
same,"viability, T/C",[11],108%
same,"viability, T/C",[12],99.6%
same,"viability, T/C",[13],94.5%
same,"viability, T/C",[14],125%
same,"viability, T/C","second compound 0.03 µM, first compound 3.16 µM",114%
same,"viability, T/C","second compound 0.03 µM, first compound 10 µM",67.7%
same,"viability, T/C",[15],118%
same,"viability, T/C",[16],111%
same,"viability, T/C",[17],113%
same,"viability, T/C",[18],108%
same,"viability, T/C","second compound 0.0949 µM, first compound 3.16 µM",103%
same,"viability, T/C","second compound 0.0949 µM, first compound 10 µM",86.1%
same,"viability, T/C",[19],108%
same,"viability, T/C",[20],99.2%
same,"viability, T/C",[21],106%
same,"viability, T/C",[22],117%
same,"viability, T/C","second compound 0.3 µM, first compound 3.16 µM",112%
same,"viability, T/C","second compound 0.3 µM, first compound 10 µM",73.7%
same,"viability, T/C",[23],103%
same,"viability, T/C",[24],101%
same,"viability, T/C",[25],96.2%
same,"viability, T/C",[26],113%
same,"viability, T/C","second compound 0.949 µM, first compound 3.16 µM",111%
same,"viability, T/C","second compound 0.949 µM, first compound 10 µM",80.9%
same,"viability, T/C",[27],86.8%
same,"viability, T/C",[28],81.9%
same,"viability, T/C",[29],91.6%
same,"viability, T/C",[30],98.2%
same,"viability, T/C","second compound 3 µM, first compound 3.16 µM",89.4%
same,"viability, T/C","second compound 3 µM, first compound 10 µM",70.3%
NC1CCC(NC2CC2c2ccccc2)CC1 (stereo not given),"viability, T/C",compound 0.000316 µM,92.5% and 90.7%
same,"viability, T/C",compound 0.001 µM,87% and 79.9%
same,"viability, T/C",compound 0.00316 µM,90% and 91.5%
same,"viability, T/C",compound 0.01 µM,95.4% and 94.3%
same,"viability, T/C",compound 0.0316 µM,99.2% and 85.7%
same,"viability, T/C",compound 0.1 µM,88.1% and 89.4%
same,pIC50,curve of compound,< 7.00
O=C(c1cc(Cc2n[nH]c(=O)c3ccccc23)ccc1F)N1CCN(C(=O)C2CC2)CC1 + Cc1c(S(C)(=O)=O)c(-c2cc(F)cc(N3CCN(c4ccc(NS(=O)(=O)c5ccc(NC(CCN6CCC(C(=O)OCCCP(=O)(O)O)CC6)CSc6ccccc6)c(S(=O)(=O)C(F)(F)F)c5)cc4)CC3)c2)c(-c2ccc(Cl)cc2)n1C(C)C,pIC50,"curve of first compound, second compound 0.0316 µM",< 5.00
same,pIC50,"curve of first compound, second compound 0.1 µM",< 5.00
same,pIC50,"curve of first compound, second compound 0.316 µM",5.08
same,pIC50,"curve of first compound, second compound 1 µM",5.27
same,pIC50,"curve of first compound, second compound 3.16 µM",5.86
same,pIC50,"curve of first compound, second compound 10 µM",> 7.50
same,"viability, T/C","second compound 0.0316 µM, first compound 0.0316 µM",100%
same,"viability, T/C","second compound 0.0316 µM, first compound 0.1 µM",95.7%
same,"viability, T/C","second compound 0.0316 µM, first compound 0.316 µM",88.8%
same,"viability, T/C","second compound 0.0316 µM, first compound 1 µM",89.3%
same,"viability, T/C","second compound 0.0316 µM, first compound 3.16 µM",85.7%
same,"viability, T/C","second compound 0.0316 µM, first compound 10 µM",59.4%
same,"viability, T/C","second compound 0.1 µM, first compound 0.0316 µM",96.3%
same,"viability, T/C","second compound 0.1 µM, first compound 0.1 µM",102%
same,"viability, T/C","second compound 0.1 µM, first compound 0.316 µM",86.4%
same,"viability, T/C","second compound 0.1 µM, first compound 1 µM",98.2%
same,"viability, T/C","second compound 0.1 µM, first compound 3.16 µM",76.2%
same,"viability, T/C","second compound 0.1 µM, first compound 10 µM",54%
same,"viability, T/C","second compound 0.316 µM, first compound 0.0316 µM",94%
same,"viability, T/C","second compound 0.316 µM, first compound 0.1 µM",92.8%
same,"viability, T/C","second compound 0.316 µM, first compound 0.316 µM",79.5%
same,"viability, T/C","second compound 0.316 µM, first compound 1 µM",85.9%
same,"viability, T/C","second compound 0.316 µM, first compound 3.16 µM",61.2%
same,"viability, T/C","second compound 0.316 µM, first compound 10 µM",47.5%
same,"viability, T/C","second compound 1 µM, first compound 0.0316 µM",78.8%
same,"viability, T/C","second compound 1 µM, first compound 0.1 µM",80.1%
same,"viability, T/C","second compound 1 µM, first compound 0.316 µM",68.3%
same,"viability, T/C","second compound 1 µM, first compound 1 µM",71.2%
same,"viability, T/C","second compound 1 µM, first compound 3.16 µM",61%
same,"viability, T/C","second compound 1 µM, first compound 10 µM",37.7%
same,"viability, T/C","second compound 3.16 µM, first compound 0.0316 µM",61%
same,"viability, T/C","second compound 3.16 µM, first compound 0.1 µM",63.8%
same,"viability, T/C","second compound 3.16 µM, first compound 0.316 µM",55.8%
same,"viability, T/C","second compound 3.16 µM, first compound 1 µM",56.5%
same,"viability, T/C","second compound 3.16 µM, first compound 3.16 µM",35.2%
same,"viability, T/C","second compound 3.16 µM, first compound 10 µM",22.1%
same,"viability, T/C","second compound 10 µM, first compound 0.0316 µM",52.7%
same,"viability, T/C","second compound 10 µM, first compound 0.1 µM",46.4%
same,"viability, T/C","second compound 10 µM, first compound 0.316 µM",44.8%
same,"viability, T/C","second compound 10 µM, first compound 1 µM",43.4%
same,"viability, T/C","second compound 10 µM, first compound 3.16 µM",36.3%
same,"viability, T/C","second compound 10 µM, first compound 10 µM",16.5%
C=C(F)C(=O)N1CCN(c2nc(OCC3CCCN3C)nc3c2CCN(c2cccc4cccc(Cl)c24)C3)CC1CC#N (stereo not given),"viability, T/C",compound 0.0316 µM,95.8% and 100%
same,"viability, T/C",compound 0.1 µM,100% and 95.2%
same,"viability, T/C",compound 0.316 µM,98.3% and 103%
same,"viability, T/C",compound 1 µM,99.6% and 123%
same,"viability, T/C",compound 3.16 µM,89.5% and 80.2%
same,"viability, T/C",compound 10 µM,0.48% and 3.4%
same,pIC50,curve of compound,5.28 and 5.30
